In US9163018B2, “Method of treatment of age-related macular degeneration (AMD)” (Prana Biotechnology Limited, priority 2006, dated 2015):

Columns and labels:
Aβ 1-42 = target: T1, Aβ 1-42 (Homo sapiens, UniProt P05067); test: Fluorometric H2O2 assay (inhibition of Abeta H2O2 production); type: biochemical; conditions: concentration required to inhibit 50% of Abeta H2O2 production; read-out: H2O2 IC50
T1 construct: The reaction solutions contained Aβ 1-42 at concentrations
Procedure, shortened: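 Reactions in PBS pH 7.4 at 37 C for 60 min, containing Aβ, copper and test compound. H2O2 output read as fluorescence of HRP-coupled deacetylated DCF. Fluorescence converted to H2O2 concentration via H2O2 standards.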

[1] = Mice plasma concentration after oral dose; type: in vivo; conditions: 30 min to 4 h after single or repeat oral dose of 30 mg/kg
[2] = target: T2, Abeta:Zn (25:50 μM) Synthetic Aggregations (Homo sapiens, UniProt P05067); test: Disaggregation of Abeta:Zn synthetic aggregates (ThT fluorescence); type: biochemical
T2 construct: PB Compound Mediated Dissolution of Aggregated Abeta 1-42; purchased Keck Laboratory, Yale University School of Medicine
Procedure, shortened: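 ThT signal (excitation 450 nm, emission 480 nm) measured after compounds at final 1, 5, 10, 25 and 50 μM acted 2 h at 37 degrees on preformed aggregates. Those aggregates came from 24 h rotating incubation of 25 μM Abeta1-42, 50 μM ZnCl2 and 50 μM ThT in PBS pH 6.6.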

T2 sequence (P05067 672-713 limits assumed): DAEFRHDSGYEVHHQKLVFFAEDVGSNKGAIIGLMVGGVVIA
T1 sequence (P05067 672-713 limits assumed): as above

## CN(C)Cc1ccc2c(Cl)cc(Cl)c(O)c2n1.Cl [PB 1033]
Aβ 1-42
  IC50: 0.35 µM
[1]
  Mice plasma concentration: Up to 500 ng/ml ng/mL
[2]; 5 μM test compound
  Disaggregation % Aggregate reduction at 5 μM: 33.2%
[2]; Abeta:Zn 25:50 μM aggregates
  EC50: 18.6 µM
